From ChEMBL document CHEMBL1201862, “PubChem BioAssay data set” (2004)
The source made the active and inactive calls.

Tests used:
[1] = target: Type-1 angiotensin II receptor (Homo sapiens, UniProt P30556); assay: agonist activity at AGTR1 – cell-based, uHTS hits, selectivity assay for APJ receptor agonist project, dose response (AID 488865); format: functional;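 note: beta-arrestin recruitment to AT1 measured by enzyme fragment complementation luminescence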
[2] = HepG2 cell cytotoxicity, dose response, cytotoxicity control for non-replicating M. tuberculosis project (AID 489018); format: functional; settings: Mycobacterium tuberculosis
[3] = microbe, parasite or virus in culture; format: functional; settings: Mycobacterium tuberculosis
[4] = A High Throughput Confirmatory Assay used to Identify Novel Compounds that Inhibit Mycobacterium Tuberculosis in the absence of Glycerol.; format: functional
[5] = THP-1 cell cytotoxicity, dose response, cytotoxicity control for non-replicating M. tuberculosis project (AID 489025); format: functional
cells = format: functional
[6] = target: Polyadenylate-binding protein 1 (Homo sapiens, UniProt P11940); assay: PABP inhibition in translation initiation, SAR follow-up (AID 435018); format: functional
[7] = target: Eukaryotic translation initiation factor 4H (Homo sapiens, UniProt Q15056); assay: inhibitors of translation initiation factor eIF4H – SAR follow-up (AID 435011); format: functional
[8] = target: DNA damage-inducible transcript 3 protein (Mus musculus, UniProt P35639); format: functional, Cricetulus griseus
HEK293 = assay: EBV LMP1 TES2 canonical NF-kB signalling blockers – cell-based, HEK293, luciferase, cherry-pick, dose response (AID 588343); format: functional; settings: Homo sapiens
[9] = viability of HCT116 lacking mutant beta-catenin – cell-based, human colon tumor, dose response (AID 1045); format: functional;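 note: HCT116 colon tumor cells with beta catenin knocked out; cells exposed to compound for 60 hours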
Ion channel NompC = Ion channel NompC (Danio rerio, UniProt Q7T1G6); assay: Dose response cell-based high-throughput screening assay for agonists of the transient receptor potential channel N1 (TRPN1). [Related pubchem assays (depositor defined):AID1424, AID1448]; format: functional
Mucolipin-3 = Mucolipin-3 (Homo sapiens, UniProt Q8TDD5); assay: Fluorescence counterscreen assay for […] agonists: dose response cell-based high-throughput screening assay to identify agonists of the transient receptor potential channel ML3 (TRPML3). [Related pubchem assays: 1424, 1448 ]; format: functional
[10] = viability of PTEN-deleted HCT116 cells – cell-based, HCT116 PTEN knockout, dose response (AID 1047); format: functional;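 note: HCT116 colon tumor cells with PTEN knocked out; cells exposed to compound for 60 hours before readout; potency for loss of cell viability measured by luminescence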
[11] = target: T1, High affinity choline transporter 1 (Homo sapiens, UniProt Q9GZV3); assay: human choline transporter blockers, potency – cell-based, 5-point CRC, membrane potential dye, dose response (AID 504840); format: functional
T1 sequence (Q9GZV3 whole entry): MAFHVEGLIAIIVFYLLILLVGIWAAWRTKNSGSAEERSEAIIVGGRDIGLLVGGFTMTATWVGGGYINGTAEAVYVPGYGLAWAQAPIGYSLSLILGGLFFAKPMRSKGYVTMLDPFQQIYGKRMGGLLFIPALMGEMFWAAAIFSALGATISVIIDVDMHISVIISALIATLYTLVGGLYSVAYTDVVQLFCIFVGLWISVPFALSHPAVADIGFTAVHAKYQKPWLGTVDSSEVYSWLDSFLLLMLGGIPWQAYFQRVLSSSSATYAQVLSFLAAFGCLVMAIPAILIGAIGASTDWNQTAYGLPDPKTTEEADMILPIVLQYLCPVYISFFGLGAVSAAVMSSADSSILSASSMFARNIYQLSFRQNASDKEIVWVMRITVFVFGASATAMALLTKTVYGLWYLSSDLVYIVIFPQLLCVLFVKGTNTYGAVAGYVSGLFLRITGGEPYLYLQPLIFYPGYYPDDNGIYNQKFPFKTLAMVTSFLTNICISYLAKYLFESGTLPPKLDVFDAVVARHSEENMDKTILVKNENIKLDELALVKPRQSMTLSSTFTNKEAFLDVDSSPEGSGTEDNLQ

[12] = target: Delta-type opioid receptor (Homo sapiens, UniProt P41143); assay: SAR Analysis of Antagonists of the DOR Receptor using an Image-Based Assay - Set 3. [Related pubchem assays (depositor defined):AID1777, AID1785]; format: functional;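 note: U2OS cells expressing DOR1 and beta-arrestin GFP stimulated with 100 nM SNC80; imaging of GFP-tagged beta-arrestin moving into spots after receptor activation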
[13] = target: T2, Kappa-type opioid receptor (Homo sapiens, UniProt P41145); assay: SAR analysis of small molecule antagonists of the kappa opioid receptor via a luminescent beta-arrestin assay - Set 4. [Related pubchem assays (depositor defined):AID1777, AID1778, AID1785, AID1786, AID1966, AID2133, AID2136, AID2285]; format: functional
[14] = target: T2, Kappa-type opioid receptor; assay: SAR analysis of Antagonists of the Kappa Opioid Receptor (KOR) using an Image-Based Assay - Set 4. [Related pubchem assays (depositor defined):AID1777, AID1785]; format: functional
[15] = target: T2, Kappa-type opioid receptor; assay: SAR analysis of small molecule antagonists of the kappa opioid receptor via a luminescent beta-arrestin assay - Set 6. [Related pubchem assays (depositor defined):AID1777, AID1778, AID1785, AID1786, AID1966, AID2133, AID2136, AID2285]; format: functional
Mu-type opioid receptor = Mu-type opioid receptor (Homo sapiens, UniProt P35372); assay: SAR Analysis of Antagonists of the MOR Receptor using an Image-Based Assay - Set 3. [Related pubchem assays (depositor defined):AID1777, AID1785, AID1786, AID1966, AID2133, AID2136, AID2284, AID2285, AID2420]; format: functional
[16] = target: T3, Tyrosine-protein phosphatase non-receptor type 7 (Homo sapiens, UniProt P35236); assay: redox-active compounds inhibiting HePTP phosphatase – biochemical, fluorescence, mechanism study (AID 2068); format: functional
T3 sequence (P35236 whole entry): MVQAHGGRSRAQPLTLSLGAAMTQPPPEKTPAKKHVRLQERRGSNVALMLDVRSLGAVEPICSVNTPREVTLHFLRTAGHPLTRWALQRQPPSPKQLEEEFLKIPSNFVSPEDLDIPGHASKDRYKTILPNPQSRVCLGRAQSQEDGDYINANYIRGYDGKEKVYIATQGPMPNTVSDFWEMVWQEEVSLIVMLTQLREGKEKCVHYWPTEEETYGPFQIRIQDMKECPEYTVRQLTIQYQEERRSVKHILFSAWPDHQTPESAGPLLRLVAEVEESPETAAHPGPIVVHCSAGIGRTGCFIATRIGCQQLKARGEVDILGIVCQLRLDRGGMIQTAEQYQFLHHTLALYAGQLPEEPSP

[17] = target: Tyrosine-protein phosphatase non-receptor type 12 (Homo sapiens, UniProt Q05209); assay: SAR Selectivity Analysis of small molecule inhibitors of PEST using pCAP in a fluorescence assay. [Related pubchem assays (depositor defined):AID1779, AID1784, AID2135]; format: functional
[18] = target: T4, Tyrosine-protein phosphatase non-receptor type 22 (Homo sapiens, UniProt Q9Y2R2); assay: SAR LYP1 Fluorescent Assay using OMFP substrate for In Vitro dose response studies - Set 3. [Related pubchem assays (depositor defined):AID1779, AID1784, AID2140, AID2686]; format: functional
T4 sequence (Q9Y2R2 whole entry): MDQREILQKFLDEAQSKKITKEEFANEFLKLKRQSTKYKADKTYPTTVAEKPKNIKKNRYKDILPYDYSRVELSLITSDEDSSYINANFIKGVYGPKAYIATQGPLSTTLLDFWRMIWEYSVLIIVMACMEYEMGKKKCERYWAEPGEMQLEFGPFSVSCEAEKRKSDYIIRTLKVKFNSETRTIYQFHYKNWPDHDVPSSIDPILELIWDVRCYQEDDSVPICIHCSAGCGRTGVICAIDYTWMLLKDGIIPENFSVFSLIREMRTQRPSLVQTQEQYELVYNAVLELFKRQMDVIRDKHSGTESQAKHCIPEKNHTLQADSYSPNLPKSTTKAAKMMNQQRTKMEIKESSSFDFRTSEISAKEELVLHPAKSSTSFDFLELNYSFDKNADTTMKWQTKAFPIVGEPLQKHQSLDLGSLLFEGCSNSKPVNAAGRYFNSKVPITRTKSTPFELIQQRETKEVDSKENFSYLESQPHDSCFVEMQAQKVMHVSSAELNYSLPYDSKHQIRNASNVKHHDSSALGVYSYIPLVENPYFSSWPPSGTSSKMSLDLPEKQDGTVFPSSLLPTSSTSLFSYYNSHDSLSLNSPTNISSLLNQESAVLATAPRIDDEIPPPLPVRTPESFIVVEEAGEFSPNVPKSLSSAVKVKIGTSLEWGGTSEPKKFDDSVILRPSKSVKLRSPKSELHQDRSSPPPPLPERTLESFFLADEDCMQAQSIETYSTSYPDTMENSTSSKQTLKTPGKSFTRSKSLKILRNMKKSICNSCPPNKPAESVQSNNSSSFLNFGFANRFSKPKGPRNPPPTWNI

[19] = target: T4, Tyrosine-protein phosphatase non-receptor type 22; assay: inhibition of lymphoid tyrosine phosphatase LYP – biochemical, pCAP fluorogenic substrate, fluorescence, set 3, SAR follow-up (AID 449727); format: functional
[20] = target: T5, Dual specificity protein phosphatase 6 (Rattus norvegicus, UniProt Q64346); format: functional;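 note: confirmatory in vitro dose-response testing of MKP-3 inhibition; recombinant His-tagged MKP-3 made in E. coli BL21 with OMFP substrate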
T5 sequence (Q64346 whole entry): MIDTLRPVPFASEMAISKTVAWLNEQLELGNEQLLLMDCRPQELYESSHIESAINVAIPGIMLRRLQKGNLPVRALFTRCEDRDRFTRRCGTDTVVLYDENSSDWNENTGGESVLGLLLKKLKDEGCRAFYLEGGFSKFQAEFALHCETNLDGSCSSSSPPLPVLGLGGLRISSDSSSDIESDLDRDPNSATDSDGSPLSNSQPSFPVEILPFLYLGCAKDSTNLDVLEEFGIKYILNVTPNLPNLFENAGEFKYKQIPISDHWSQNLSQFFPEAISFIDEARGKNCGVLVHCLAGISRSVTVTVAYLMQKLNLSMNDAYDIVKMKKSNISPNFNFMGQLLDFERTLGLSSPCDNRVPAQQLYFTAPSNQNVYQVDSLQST

[21] = target: T6, Dual specificity protein phosphatase 3 (Homo sapiens, UniProt P51452); assay: SAR VHR1 Fluorescent Assay for In Vitro dose response studies. [Related pubchem assays (depositor defined):AID1654, AID1661, AID1878, AID1992, AID2004, AID2070, AID2085]; format: functional
[22] = target: T6, Dual specificity protein phosphatase 3; assay: SAR VHR1 absorbance Assay for In Vitro dose response studies. [Related pubchem assays (depositor defined):AID1654, AID1661, AID1878, AID1992, AID2004]

T2 sequence (P41145 whole entry): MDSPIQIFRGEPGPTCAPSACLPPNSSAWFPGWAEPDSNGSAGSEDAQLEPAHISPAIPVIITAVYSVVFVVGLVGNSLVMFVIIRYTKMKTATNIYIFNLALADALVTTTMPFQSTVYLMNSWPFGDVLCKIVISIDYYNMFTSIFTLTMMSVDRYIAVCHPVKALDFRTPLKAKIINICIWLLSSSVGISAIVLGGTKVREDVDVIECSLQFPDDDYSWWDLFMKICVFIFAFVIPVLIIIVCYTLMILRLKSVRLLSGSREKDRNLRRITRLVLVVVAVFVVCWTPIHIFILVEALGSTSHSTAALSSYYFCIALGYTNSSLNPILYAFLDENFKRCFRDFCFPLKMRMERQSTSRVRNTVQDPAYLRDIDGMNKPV
T6 sequence (P51452 whole entry): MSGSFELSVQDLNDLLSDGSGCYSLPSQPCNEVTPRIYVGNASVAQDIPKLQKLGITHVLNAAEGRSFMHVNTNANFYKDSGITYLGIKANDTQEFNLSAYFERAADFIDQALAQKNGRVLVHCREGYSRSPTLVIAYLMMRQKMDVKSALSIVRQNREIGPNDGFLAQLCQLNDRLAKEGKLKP
Chain of Mu-type opioid receptor (P35372 whole entry): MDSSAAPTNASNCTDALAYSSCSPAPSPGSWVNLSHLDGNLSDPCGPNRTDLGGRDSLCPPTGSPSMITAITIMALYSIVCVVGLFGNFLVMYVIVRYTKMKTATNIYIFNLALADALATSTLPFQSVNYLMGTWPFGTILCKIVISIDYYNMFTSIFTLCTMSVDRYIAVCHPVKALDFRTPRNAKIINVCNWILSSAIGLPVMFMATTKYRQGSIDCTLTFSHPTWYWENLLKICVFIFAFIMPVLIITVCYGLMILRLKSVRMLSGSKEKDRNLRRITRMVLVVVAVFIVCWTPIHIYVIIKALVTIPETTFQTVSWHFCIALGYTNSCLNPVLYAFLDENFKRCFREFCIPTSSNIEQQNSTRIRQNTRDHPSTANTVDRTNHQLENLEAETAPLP
Chain of Type-1 angiotensin II receptor (P30556 whole entry, the tested form may be a part): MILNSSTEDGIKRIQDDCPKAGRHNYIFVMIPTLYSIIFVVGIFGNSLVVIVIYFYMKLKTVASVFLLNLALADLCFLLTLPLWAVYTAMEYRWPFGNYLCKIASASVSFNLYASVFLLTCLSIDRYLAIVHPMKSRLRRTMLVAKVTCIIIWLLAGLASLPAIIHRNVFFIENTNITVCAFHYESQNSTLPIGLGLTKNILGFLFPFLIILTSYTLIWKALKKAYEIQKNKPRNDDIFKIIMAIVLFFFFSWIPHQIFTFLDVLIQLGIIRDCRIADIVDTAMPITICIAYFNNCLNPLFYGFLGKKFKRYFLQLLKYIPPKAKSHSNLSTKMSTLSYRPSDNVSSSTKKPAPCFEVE
Chain of DNA damage-inducible transcript 3 protein (P35639 whole entry): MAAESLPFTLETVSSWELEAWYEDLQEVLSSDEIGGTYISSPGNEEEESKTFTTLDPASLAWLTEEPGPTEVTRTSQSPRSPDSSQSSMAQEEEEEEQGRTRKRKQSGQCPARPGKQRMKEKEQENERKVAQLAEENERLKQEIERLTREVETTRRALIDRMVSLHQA
Chain of Ion channel NompC (Q7T1G6 whole entry): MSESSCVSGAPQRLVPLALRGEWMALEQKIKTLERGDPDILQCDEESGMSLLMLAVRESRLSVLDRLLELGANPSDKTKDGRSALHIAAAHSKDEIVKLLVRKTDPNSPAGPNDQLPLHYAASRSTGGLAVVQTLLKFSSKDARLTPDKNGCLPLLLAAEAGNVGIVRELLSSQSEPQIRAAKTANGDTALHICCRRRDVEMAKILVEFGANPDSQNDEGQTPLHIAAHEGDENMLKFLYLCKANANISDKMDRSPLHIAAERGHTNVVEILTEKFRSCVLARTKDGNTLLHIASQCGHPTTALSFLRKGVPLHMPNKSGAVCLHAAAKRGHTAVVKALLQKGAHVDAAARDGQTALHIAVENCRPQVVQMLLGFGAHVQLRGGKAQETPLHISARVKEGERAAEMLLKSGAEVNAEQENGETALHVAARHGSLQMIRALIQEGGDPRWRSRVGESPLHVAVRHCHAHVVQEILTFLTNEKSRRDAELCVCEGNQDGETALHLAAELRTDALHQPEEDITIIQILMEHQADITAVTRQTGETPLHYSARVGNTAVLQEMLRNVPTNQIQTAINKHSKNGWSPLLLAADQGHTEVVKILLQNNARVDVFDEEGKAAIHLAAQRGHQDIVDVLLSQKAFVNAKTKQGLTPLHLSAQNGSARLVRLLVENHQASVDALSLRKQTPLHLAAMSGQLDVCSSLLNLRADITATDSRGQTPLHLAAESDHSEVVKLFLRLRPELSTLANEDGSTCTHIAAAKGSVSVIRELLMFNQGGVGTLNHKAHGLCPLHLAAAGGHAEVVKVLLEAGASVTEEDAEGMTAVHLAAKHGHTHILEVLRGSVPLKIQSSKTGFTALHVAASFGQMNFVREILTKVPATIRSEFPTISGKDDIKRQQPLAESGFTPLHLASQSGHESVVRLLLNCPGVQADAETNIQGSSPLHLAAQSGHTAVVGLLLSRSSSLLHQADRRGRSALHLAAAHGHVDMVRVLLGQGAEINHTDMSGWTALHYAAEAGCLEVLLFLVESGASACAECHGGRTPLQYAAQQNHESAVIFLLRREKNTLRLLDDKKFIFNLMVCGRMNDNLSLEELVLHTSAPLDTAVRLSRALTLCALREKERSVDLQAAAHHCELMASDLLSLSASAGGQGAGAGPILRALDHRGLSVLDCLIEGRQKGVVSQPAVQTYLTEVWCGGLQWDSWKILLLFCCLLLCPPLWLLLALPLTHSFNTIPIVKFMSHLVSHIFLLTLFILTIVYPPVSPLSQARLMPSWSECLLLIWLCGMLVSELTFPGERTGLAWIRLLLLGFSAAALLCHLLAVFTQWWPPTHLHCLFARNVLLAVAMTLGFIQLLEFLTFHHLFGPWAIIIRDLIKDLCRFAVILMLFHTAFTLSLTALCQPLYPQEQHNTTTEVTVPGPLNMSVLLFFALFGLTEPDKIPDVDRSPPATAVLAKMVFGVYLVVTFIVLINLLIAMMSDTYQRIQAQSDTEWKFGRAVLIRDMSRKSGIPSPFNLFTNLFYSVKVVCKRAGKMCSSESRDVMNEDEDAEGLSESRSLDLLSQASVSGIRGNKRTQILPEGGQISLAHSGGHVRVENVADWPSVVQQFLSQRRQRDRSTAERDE
Chain of Tyrosine-protein phosphatase non-receptor type 12 (Q05209 whole entry): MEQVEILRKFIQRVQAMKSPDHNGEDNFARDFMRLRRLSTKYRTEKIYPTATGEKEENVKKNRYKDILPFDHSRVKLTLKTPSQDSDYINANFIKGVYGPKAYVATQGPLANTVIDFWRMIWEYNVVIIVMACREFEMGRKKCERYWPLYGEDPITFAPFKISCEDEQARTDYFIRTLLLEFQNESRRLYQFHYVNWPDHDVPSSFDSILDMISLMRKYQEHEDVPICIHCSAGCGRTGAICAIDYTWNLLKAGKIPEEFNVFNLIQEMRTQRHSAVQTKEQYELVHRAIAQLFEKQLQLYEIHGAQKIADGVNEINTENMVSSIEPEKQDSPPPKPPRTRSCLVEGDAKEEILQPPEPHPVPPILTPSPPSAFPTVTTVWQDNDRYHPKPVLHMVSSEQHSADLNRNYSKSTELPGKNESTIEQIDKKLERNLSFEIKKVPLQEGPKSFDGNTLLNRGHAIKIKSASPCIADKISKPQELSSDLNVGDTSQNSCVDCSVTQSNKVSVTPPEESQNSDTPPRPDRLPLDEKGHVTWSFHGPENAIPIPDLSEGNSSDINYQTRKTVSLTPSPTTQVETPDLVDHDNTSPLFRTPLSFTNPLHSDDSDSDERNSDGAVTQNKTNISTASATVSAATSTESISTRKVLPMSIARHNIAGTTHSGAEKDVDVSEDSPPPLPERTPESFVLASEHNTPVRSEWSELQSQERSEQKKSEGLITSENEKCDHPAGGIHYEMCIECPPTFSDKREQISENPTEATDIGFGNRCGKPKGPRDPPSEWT
Chain of Delta-type opioid receptor (P41143 whole entry): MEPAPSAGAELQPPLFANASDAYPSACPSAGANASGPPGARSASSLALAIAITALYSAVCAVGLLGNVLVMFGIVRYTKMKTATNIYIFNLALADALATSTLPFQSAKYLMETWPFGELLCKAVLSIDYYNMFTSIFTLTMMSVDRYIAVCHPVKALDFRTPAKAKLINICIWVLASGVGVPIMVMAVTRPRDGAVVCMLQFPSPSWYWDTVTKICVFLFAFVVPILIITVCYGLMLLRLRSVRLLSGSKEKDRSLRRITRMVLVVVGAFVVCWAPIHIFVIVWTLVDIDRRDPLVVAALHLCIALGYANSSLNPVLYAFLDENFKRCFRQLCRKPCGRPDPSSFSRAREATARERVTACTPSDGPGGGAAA

CCOC(=O)C1=C(Cn2cnc3ccccc32)NC(=O)NC1c1cc(C)ccc1C (configuration not stated)
EC50 [1]: > 100 µM (inactive)

CSc1ccc(NC(=O)Nc2cccn(Cc3ccccc3)c2=O)cc1
CC50 [2]: > 20 µM (active)
CC50 [3]: > 40 µM (active)
IC50 [4]: > 100 µM (active)
CC50 [5]: > 40 µM (active)
IC50 (cells): 11.4 µM (active)

COc1cccc(/C=C2/NC(=O)N(CC(=O)Nc3ccc(C)cc3)C2=O)c1OCc1cccc(C(=O)O)c1
IC50 [6]: > 100 µM (inactive)
IC50 [7]: 10.6 µM (active)

Cc1nc(SCC(=O)Nc2ccc(C)c(F)c2)c2oc3ccccc3c2n1
Absolute IC50 (CHOP) [8]: 10 µM

CCCCN=C(S)Nc1ccc([N+](=O)[O-])cc1
AC50 (HEK293): 105 µM (active)
EC50 [9]: 20.7 µM (active)
EC50 (Ion channel NompC): > 29.9 µM (inactive)
EC50 (Mucolipin-3): > 29.9 µM (not active)
EC50 [10]: 19.6 µM (active)
IC50 [11]: 12 µM (active)

CC(C)N(CCNC(=O)c1ccc(CNS(=O)(=O)c2ccc(C3CCCCC3)cc2)cc1)Cc1ccccc1
IC50 [12]: > 32 µM (inactive)
IC50 [13]: > 20 µM (inactive)
IC50 [14]: 1.22 µM (active)
IC50 [15]: > 20 µM (inactive)
IC50 (Mu-type opioid receptor): 2.47 µM (active)

O=C(COc1c(Cl)cccc1Cl)Oc1ccc([N+](=O)[O-])cc1
IC50 [16]: 15.1 µM (active)
IC50 [17]: 42.5 µM (active)
IC50 [18]: > 100 µM (inactive)
IC50 [19]: 63.7 µM (active)
IC50 [20]: > 99 µM (inactive)
IC50 [21]: > 99 µM (inactive)
IC50 [22]: > 100 µM (inactive)
